{"source": "ChEMBL document CHEMBL4840306", "about": "“Chemodynamic therapy agents Cu(II) complexes of quinoline derivatives induced ER stress and mitochondria-mediated apoptosis in SK-OV-3 cells” (Eur J Med Chem, 2021)", "key": {"[1]": {"tested_on": "SK-OV-3", "experiment": "Cytotoxicity against human SK-OV-3 cells assessed as reduction in cell viability measured after 48 hrs by MTT assay", "assay_type": "functional, cell-based", "conditions": "SK-OV-3, 48 h"}, "[2]": {"tested_on": "T-24", "experiment": "Cytotoxicity against human T-24 cells assessed as reduction in cell viability measured after 48 hrs by MTT assay", "assay_type": "functional, cell-based", "conditions": "T-24, 48 h"}, "[3]": {"tested_on": "HepG2", "experiment": "Cytotoxicity against human HepG2 cells assessed as reduction in cell viability measured after 48 hrs by MTT assay", "assay_type": "functional, cell-based", "conditions": "HepG2, 48 h"}, "[4]": {"tested_on": "MGC-803", "experiment": "Cytotoxicity against human MGC-803 cells assessed as reduction in cell viability measured after 48 hrs by MTT assay", "assay_type": "functional, cell-based", "conditions": "MGC-803, 48 h"}, "[5]": {"tested_on": "WI-38", "experiment": "Cytotoxicity against human WI-38 cells assessed as reduction in cell viability measured after 48 hrs by MTT assay", "assay_type": "cell-based", "conditions": "WI-38, 48 h"}, "[6]": {"tested_on": "L02", "experiment": "Cytotoxicity against human HL7702 cells assessed as reduction in cell viability measured after 48 hrs by MTT assay", "assay_type": "cell-based", "conditions": "L02, 48 h"}}}
{"compound": "Oc1cccc(/C=N/c2cc3ccccc3nc2-c2ccccc2F)c1O", "values": [{"measurement": "IC50", "setting": "[1]", "value": 23.6, "unit": "µM"}, {"measurement": "IC50", "setting": "[2]", "value": "> 40", "unit": "µM"}, {"measurement": "IC50", "setting": "[3]", "value": "> 40", "unit": "µM"}, {"measurement": "IC50", "setting": "[4]", "value": "> 40", "unit": "µM"}, {"measurement": "IC50", "setting": "[5]", "value": "> 40", "unit": "µM"}, {"measurement": "IC50", "setting": "[6]", "value": 34, "unit": "µM"}]}
